Measured values taken from PubChem BioAssay AID1259407 (Chemical Carcinogenesis Research Information System (CCRIS), 2018).
Calls of active or inactive are those of the source. No rule for the calls is given here.

Test system: CCRIS mutagenicity, Ames/micronucleus/aberration tests
Assay: CCRIS mutagenicity studies
[1] = Test System: AMES SALMONELLA TYPHIMURIUM, Strain/Indicator: TA98, Metabolic Activation: NONE, Method: PREINCUBATION
[2] = Test System: AMES SALMONELLA TYPHIMURIUM, Strain/Indicator: TA100, Metabolic Activation: NONE, Method: PREINCUBATION
[3] = Test System: AMES SALMONELLA TYPHIMURIUM, Strain/Indicator: TA1535, Metabolic Activation: NONE, Method: PREINCUBATION
[4] = Test System: AMES SALMONELLA TYPHIMURIUM, Strain/Indicator: TA1537, Metabolic Activation: NONE, Method: PREINCUBATION
[5] = Test System: AMES SALMONELLA TYPHIMURIUM, Strain/Indicator: TA1538, Metabolic Activation: NONE, Method: PREINCUBATION
[6] = Test System: AMES SALMONELLA TYPHIMURIUM, Strain/Indicator: TA97, Metabolic Activation: NONE, Method: PREINCUBATION
[7] = Test System: AMES SALMONELLA TYPHIMURIUM, Strain/Indicator: TA100, Metabolic Activation: NONE, Method: STANDARD PLATE
[8] = Test System: AMES SALMONELLA TYPHIMURIUM, Strain/Indicator: TA102, Metabolic Activation: NONE, Method: PREINCUBATION

Structure (SMILES): CCCC(=O)Nc1ncnc2c1ncn2[C@@H]1O[C@@H]2COP(=O)(O)O[C@H]2[C@H]1OC(=O)CCC
- mutagenic call [1]: inactive; negative
- mutagenic call (Test System: AMES SALMONELLA TYPHIMURIUM, Strain/Indicator: TA98, Metabolic Activation: RAT, LIVER, S-9, KC-500, Method: PREINCUBATION): inactive; negative
- mutagenic call [2]: inactive; negative
- mutagenic call (Test System: AMES SALMONELLA TYPHIMURIUM, Strain/Indicator: TA100, Metabolic Activation: RAT, LIVER, S-9, KC-500, Method: PREINCUBATION): inactive; negative
- mutagenic call [3]: inactive; negative
- mutagenic call (Test System: AMES SALMONELLA TYPHIMURIUM, Strain/Indicator: TA1535, Metabolic Activation: RAT, LIVER, S-9, KC-500, Method: PREINCUBATION): inactive; negative
- mutagenic call [4]: inactive; negative
- mutagenic call (Test System: AMES SALMONELLA TYPHIMURIUM, Strain/Indicator: TA1537, Metabolic Activation: RAT, LIVER, S-9, KC-500, Method: PREINCUBATION): inactive; negative
- mutagenic call [5]: inactive; negative
- mutagenic call (Test System: AMES SALMONELLA TYPHIMURIUM, Strain/Indicator: TA1538, Metabolic Activation: RAT, LIVER, S-9, KC-500, Method: PREINCUBATION): inactive; negative
- mutagenic call (Test System: E. COLI, Strain/Indicator: WP2 UVRA, Metabolic Activation: NONE, Method: PREINCUBATION): inactive; negative
- mutagenic call (Test System: E. COLI, Strain/Indicator: WP2 UVRA, Metabolic Activation: RAT, LIVER, S-9, KC-500, Method: PREINCUBATION): inactive; negative

Structure (SMILES): O=C(N=c1sn(C(=O)c2cccc([N+](=O)[O-])c2)c2ccc([N+](=O)[O-])cc12)c1cccc([N+](=O)[O-])c1
- mutagenic call (Test System: AMES SALMONELLA TYPHIMURIUM, Strain/Indicator: TA100, Metabolic Activation: S-9, Method: STANDARD PLATE): active; positive

Structure (SMILES): O=C1C=CC(=O)c2ccccc21
- mutagenic call (End Point: In vitro chromosomal aberrations, Test System: Chinese hamster lung (CHL/IU) cells, Metabolic Activation: Rat, Liver, S9, Phenobarbital and 5,6-benzoflavone): active; positive (structural changes). toxic at 0.014 mg/ml.
- mutagenic call [6]: inactive; negative
- mutagenic call (Test System: AMES SALMONELLA TYPHIMURIUM, Strain/Indicator: TA97, Metabolic Activation: NONE, Method: STANDARD PLATE): inactive; negative
- mutagenic call (Test System: AMES SALMONELLA TYPHIMURIUM, Strain/Indicator: TA97, Metabolic Activation: RAT, LIVER, S-9, PCB, Method: STANDARD PLATE): inactive; negative
- mutagenic call (Test System: AMES SALMONELLA TYPHIMURIUM, Strain/Indicator: TA97, Metabolic Activation: RAT, LIVER, S-9, PHENOBARBITAL AND 5,6-BENZOFLAVONE, Method: PREINCUBATION): active; positive
- mutagenic call [1]: inactive; negative
- mutagenic call (Test System: AMES SALMONELLA TYPHIMURIUM, Strain/Indicator: TA98, Metabolic Activation: NONE, Method: STANDARD PLATE): inactive; negative
- mutagenic call (Test System: AMES SALMONELLA TYPHIMURIUM, Strain/Indicator: TA98, Metabolic Activation: RAT, LIVER, S-9, PCB, Method: STANDARD PLATE): inactive; negative
- mutagenic call (Test System: AMES SALMONELLA TYPHIMURIUM, Strain/Indicator: TA98, Metabolic Activation: RAT, LIVER, S-9, PHENOBARBITAL AND 5,6-BENZOFLAVONE, Method: PREINCUBATION): inactive; negative
- mutagenic call [2]: active; positive
- mutagenic call [7]: inactive; negative
- mutagenic call (Test System: AMES SALMONELLA TYPHIMURIUM, Strain/Indicator: TA100, Metabolic Activation: RAT, LIVER, S-9, PCB, Method: STANDARD PLATE): inactive; negative
- mutagenic call (Test System: AMES SALMONELLA TYPHIMURIUM, Strain/Indicator: TA100, Metabolic Activation: RAT, LIVER, S-9, PHENOBARBITAL AND 5,6-BENZOFLAVONE, Method: PREINCUBATION): active; positive
- mutagenic call [8]: inactive; negative
- mutagenic call (Test System: AMES SALMONELLA TYPHIMURIUM, Strain/Indicator: TA102, Metabolic Activation: RAT, LIVER, S-9, PHENOBARBITAL AND 5,6-BENZOFLAVONE, Method: PREINCUBATION): active; positive
- mutagenic call (Test System: AMES SALMONELLA TYPHIMURIUM, Strain/Indicator: TA104, Metabolic Activation: NONE, Method: PREINCUBATION): active; positive
- mutagenic call (Test System: AMES SALMONELLA TYPHIMURIUM, Strain/Indicator: TA104, Metabolic Activation: RAT, LIVER, S-9, PHENOBARBITAL AND 5,6-BENZOFLAVONE, Method: PREINCUBATION): active; positive
- mutagenic call [3]: inactive; negative
- mutagenic call (Test System: AMES SALMONELLA TYPHIMURIUM, Strain/Indicator: TA1535, Metabolic Activation: RAT, LIVER, S-9, PHENOBARBITAL AND 5,6-BENZOFLAVONE, Method: PREINCUBATION): inactive; negative
- mutagenic call [4]: inactive; negative
- mutagenic call (Test System: AMES SALMONELLA TYPHIMURIUM, Strain/Indicator: TA1537, Metabolic Activation: RAT, LIVER, S-9, PHENOBARBITAL AND 5,6-BENZOFLAVONE, Method: PREINCUBATION): inactive; negative
- mutagenic call [5]: inactive; negative
- mutagenic call (Test System: AMES SALMONELLA TYPHIMURIUM, Strain/Indicator: TA1538, Metabolic Activation: RAT, LIVER, S-9, PHENOBARBITAL AND 5,6-BENZOFLAVONE, Method: PREINCUBATION): inactive; negative
- mutagenic call (Test System: AMES SALMONELLA TYPHIMURIUM, Strain/Indicator: TA2637, Metabolic Activation: NONE, Method: PREINCUBATION): active; positive
- mutagenic call (Test System: AMES SALMONELLA TYPHIMURIUM, Strain/Indicator: TA2637, Metabolic Activation: RAT, LIVER, S-9, PHENOBARBITAL AND 5,6-BENZOFLAVONE, Method: PREINCUBATION): active; positive
- mutagenic call (Test System: Ames Salmonella typhimurium, Strain/Indicator: TA97, Metabolic Activation: None, Method: Preincubation): inactive; negative
- mutagenic call (Test System: Ames Salmonella typhimurium, Strain/Indicator: TA97, Metabolic Activation: Rat, Liver, S9, Aroclor 1254, Method: Preincubation): inactive; negative
- mutagenic call (Test System: Ames Salmonella typhimurium, Strain/Indicator: TA98, Metabolic Activation: None, Method: Preincubation): inactive; negative
- mutagenic call (Test System: Ames Salmonella typhimurium, Strain/Indicator: TA98, Metabolic Activation: Rat, Liver, S9, Aroclor 1254, Method: Preincubation): inactive; negative
- mutagenic call (Test System: Ames Salmonella typhimurium, Strain/Indicator: TA100, Metabolic Activation: None, Method: Preincubation): inactive; negative
- mutagenic call (Test System: Ames Salmonella typhimurium, Strain/Indicator: TA100, Metabolic Activation: Rat, Liver, S9, Aroclor 1254, Method: Preincubation): inactive; negative
- mutagenic call (Test System: Ames Salmonella typhimurium, Strain/Indicator: TA102, Metabolic Activation: None, Method: Preincubation): inactive; negative
- mutagenic call (Test System: Ames Salmonella typhimurium, Strain/Indicator: TA102, Metabolic Activation: Rat, Liver, S9, Aroclor 1254, Method: Preincubation): inactive; negative

Structure (SMILES): Cn1cnc(N=O)c1-c1ccccc1
- mutagenic call [7]: active; positive

Structure (SMILES): CCCCC/C(C=O)=C/c1ccccc1
- mutagenic call [6]: inactive; negative
- mutagenic call (Test System: AMES SALMONELLA TYPHIMURIUM, Strain/Indicator: TA97, Metabolic Activation: RAT, LIVER, S-9, AROCLOR 1254, Method: PREINCUBATION): inactive; negative
- mutagenic call [8]: inactive; negative
- mutagenic call (Test System: AMES SALMONELLA TYPHIMURIUM, Strain/Indicator: TA102, Metabolic Activation: RAT, LIVER, S-9, AROCLOR 1254, Method: PREINCUBATION): inactive; negative

Structure (SMILES): O=c1c(O[C@@H]2O[C@H](CO)[C@@H](O)[C@H](O)[C@H]2O)c(-c2ccc(O)c(O)c2)oc2cc(O)cc(O)c12
- mutagenic call (Test System: AMes Salmonella typhimurium, Strain/Indicator: TA98, Metabolic Activation: None, Method: Standard plate): active; positive
- mutagenic call (Test System: Ames Salmonella typhimurium, Strain/Indicator: 98, Metabolic Activation: Rat, Liver, S-9, Aroclor 1254, Method: Standard plate): active; positive
- mutagenic call (Test System: Ames Salmonella typhimurium, Strain/Indicator: TA100, Metabolic Activation: None, Method: Standard plate): inactive; negative
- mutagenic call (Test System: Ames Salmonella typhimurium, Strain/Indicator: TA100, Metabolic Activation: Rat, Liver, S-9, Aroclor 1254, Method: Standard plate): active; positive
